The subject of one assay is IL-23. As to the kind of experiment: IL-23 level in skin homogenate by ELISA, IMQ-induced psoriasis model. The assay is classed as in vivo, Balb/c mice. Conditions: day 7, ELISA. On the procedure: (§1) The effect of topical administration of Compound 1 for the treatment of psoriasis was tested in this animal study. In this study, typical features of psoriasis, namely erythema, scaling, and skin thickness, were induced by the application of 5% w/w imiquimod (IMQ) cream on the dorsal skin of Balb/c mice over a period of 6 consecutive days. Animals that developed psoriasis-like symptoms were used for studying the efficacy of the Compound 1 prepared in a vehicle (as described above). In this study, male Balb/c mice (aged 6 to 8 weeks) were used. The animals were divided into 8 groups consisting of 10 animals in each group as follows:
An IMQ-induced psoriasis model reproduces biochemical and histopathological parameters characteristic of human psoriatic lesions. Topical application of the IMQ cream increased levels of cytokines including IL-23 and IL-17 in the treated skin tissues. The animals were euthanized on day 7. Spleen, liver and skin tissues were collected from all the animals Spleen and liver tissues were weighed. IL-17 and IL-23 levels were measured by ELISA using a commercially available kit. The skin homogenates obtained from mice of different groups were analyzed using ELISA for quantification of IL-17 and IL-23 levels as the selected interleukins are the typical inflammatory markers of psoriasis.
A general note: An ELISA detects its analyte on a solid surface through an enzyme-linked reagent.

For assay [1], the system named is surgical incision wound on rabbit skin. Put plainly: Incisional wound healing in rabbit, topical cream. The assay is classed as in vivo, New Zealand rabbits. As to conditions: 2.5% in vehicle. The source says:
In this study, New Zealand rabbits weighing between 2.0-2.5 kg body weight were used and divided into two groups;
Control Group: Treated with the vehicle alone.
Test Group: Treated with Compound 1 (2.5%) prepared in the vehicle.
Para vertebral straight incisions of 2 cm length each were made through the entire thickness of the skin on either side of the vertebral column with the help of a sharp scalpel. After complete haemostasis, the wound was closed by means of interrupted sutures placed at equidistance points about 1 cm apart (See FIG. 6). Animals were treated once daily from day 0 to day 14 post-wounding day. Images were taken daily during the study period. Sutures were removed on day 7 and observed for wound closure.

The subject of assay [2] is surgical incisional wound in diabetic (db/db) mice. Put plainly: Incisional wound healing in diabetic (db/db) mice, with or without SIRT1 inhibitor EX-527. As to conditions: Group 12, 0.625% in vehicle, topical once daily for 7 days. Format: in vivo. The source says: In this study, mice of db/db strain (age: 12 weeks) were used. The animals were divided into four groups: • Group 11: Mice control treated with the vehicle alone. • Group 12 Mice treated with Compound 1 (0.625%) prepared in the vehicle. • Group 13 Mice treated with Compound 1 (0.625%) and EX-527 (0.025%) in the • vehicle. • Group 14: Mice treated with EX-527 (0.025%) in the vehicle.
Para vertebral straight incisions of 2 cm length and 1 mm depth each were made through the entire thickness of the skin, on either side of the vertebral column with the help of a sharp scalpel. After complete haemostasis, the wound was closed by means of interrupted sutures placed at equidistance points about 1 cm apart (See FIG. 8) All the groups were treated once daily for 7 days with the respective test and control preparations. Images of the wound area were taken on each day of the study by photographs and Doppler imaging. The wound area was measured using a transparent tracing sheet before and during the treatment to measure the wound closure at every 4 day interval.

Assay [3] has as its system wound on the dorsal skin of non-diabetic C57 mice. As to the kind of experiment: Wound healing (1 cm^2 punch biopsy wound) in non-diabetic C57BL/6j mice, topical cream. Format: in vivo. As to conditions: topical once daily for 12 days; for Wound healing observed animals in a group: 5 animals in the group. The text has this: Method: In this study, C57BL/6j mice strain (age: 12 weeks) were used for studying the wound healing process. A 1 cm^2 wound was made using a punch biopsy on the dorsal side of the C57 mice. The animals were divided into 5 groups consisting of 5 animals in each group as follows: • Group 6 (n=5): treated with vehicle alone (Non-Diabetic Control Group). • Group 7 (n=5) treated with Compound 2 (2.5%) prepared in the vehicle. • Group 8 (n=5): treated with Compound 1 (0.625%) prepared in the vehicle. • Group 9 (n=5) treated with Compound 1 (1.25%) prepared in the vehicle. • Group 10 (n=5) treated with Compound 1 (2.5%) prepared in the vehicle. Three concentrations of Compound 1, i.e. 0.625%, 1.25%, and 2.5%, prepared in the vehicle were tested in this study. The topical preparations were applied on the wound once daily for 12 days starting 12 hours after the wound was created. Images of the wound area were visualized, and measurements of area were recorded on each day of the study.

Assay [4] has as its system wound on the dorsal skin of diabetic (db/db) mice. Put plainly: Diabetic wound healing (1 cm^2 punch biopsy wound) in db/db mice, topical cream. The assay is classed as in vivo. Conditions: for Wound healing observed animals in a group on day 10 / % of Wound healing: topical once daily; for Wound healing observed animals in a group on day 10: 5 animals in the group; for % of Wound healing: day 10. The source says:
Method: In this study, mice of db/db strain (age: 13-14 weeks) were used as this strain is more analogous to diabetic wound healing in humans. A 1 cm^2 wound was made using a punch biopsy on the dorsal side of the db/db mice under local anesthetic conditions. The animals were divided into 5 groups with 5 animals in each group as follows: • Group 1 (n=5): treated with vehicle alone (Diabetic Control Group). • Group 2 (n=5) treated with Compound 2 (2.5%) prepared in the vehicle. • Group 3 (n=5): treated with Compound 1 (0.625%) prepared in the vehicle. • Group 4 (n=5) treated with Compound 1 (1.25%) prepared in the vehicle. • Group 5 (n=5) treated with Compound 1 (2.5%) prepared in the vehicle. Three concentrations of Compound 1, i.e. 0.625%, 1.25%, and 2.5%, were tested for this study. The topical preparations were applied on the wound once daily for 12 days. Images of the wound area were visualized, and measurements of the wound area were recorded on each day of the study.

The test system of assay [5] is IMQ-induced psoriasis in Balb/c mice. Put plainly: IMQ-induced psoriasis in Balb/c mice, PASI scoring. As to conditions: topical 12 h after IMQ, day 1 to 6. The assay is classed as in vivo. As for the experimental part:
as §1
Animals in this group were topically treated with 62.5 mg of commercially available imiquimod cream (5%) on the shaved back for 6 consecutive days (day 1 to 6 of study) at a specific time in the morning. This negative control group represents the typical psoriatic model induced by imiquimod 5% (IMQ). […]
Psoriatic area and severity index (PASI) scoring was analyzed to determine the efficacy of compositions containing a Compound 1 with appropriate controls as part of the study. The severity of inflammation of the skin was evaluated by an objective scoring system based on the clinical PASI scores. Erythema (0-4) and scaling (0-4) were scored independently where, 0-none; 1-slight; 2-moderate; 3-marked; 4-very marked. […]

The subject of a further assay is mice skin tissues. As to the kind of experiment: Tensile strength of skin tissues on day 8 after treatment for 7 days. The assay is classed as in vivo. As for the experimental part:
Method: Fresh mice skin was treated once daily and stretched between the two ends of the tensile machine with a load of 100 kg with a stretching speed of 5 mm/min. (FIG. 9).

Assay [6] relates to IMQ-induced psoriasis in Balb/c mice. As to the kind of experiment: Histopathology (H&E staining) of skin, IMQ-induced psoriasis model. Format: in vivo. Conditions: 0.625% preparation; comparable to clobetasol propionate cream. As for the experimental part: As a part of the efficacy study, a histopathology study was performed to study the morphological observations of the skin of mice representative of the different treatment groups. At the end of experiment, skin samples of mice from each group were fixed in 4% paraformaldehyde and embedded in paraffin. From each paraffin block, 4 μm thick sections were made and mounted on the glass slides. The sections were stained by haematoxylin and eosin and images were taken and evaluated.

The test system of assay [7] is hepatic enzyme markers ALT and AST. As to conditions: intraperitoneally prior to treatment with t-butyl hydroperoxide; cited from earlier work.

Turning to `O=c1cc(CCCCCCCC[P+](c2ccccc2)(c2ccccc2)c2ccccc2)c2cc(O)c(O)cc2o1.[Br-]` [Compound 1], the “IL-23 levels in skin tissue compared to the negative control” value with IL-23 (0.313% in vehicle) and in the assay with IL-23 (0.625% in vehicle) was “decline in IL-23 levels” throughout. Further, the “Time of faster surgical wound healing versus Control Group” value in assay [1] (topical once daily day 0 to day 14) is on record as not above 8 days. The Surgical scar entry in [1] (topical once daily, compared to Control Group) is listed as “No surgical scar was observed”. In addition, the “Time to complete healing of the incisional wound” value in [2] is not above 7 days. In addition, the “% of Wound healing” value in assay [3] (0.625% in vehicle cream) stood at 90%; in assay [3] (1.25% in vehicle cream), 90%; in assay [3] (2.5% in vehicle cream), 100%; in [4] (0.625% in vehicle cream) it was 100%; in [4] (1.25% in vehicle cream), 90%; in assay [4] (2.5% in vehicle cream), 90%. Moreover, the “Wound healing observed animals in a group” value in assay [3] (0.625% in vehicle cream) was determined as 4; in assay [3] (1.25% in vehicle cream), 4; in assay [3] (2.5% in vehicle cream), 5. In addition, the “Wound healing observed animals in a group on day 10” value stood at 5 in assay [4] (0.625% in vehicle cream), 4 in assay [4] (1.25% in vehicle cream) and 4 in assay [4] (2.5% in vehicle cream). The “Day of complete closure of the wound” value in [4] (Groups 3-5, 0.625%, 1.25% and 2.5% in vehicle, topical) was not above 10 days. Besides, the results for the “PASI scores over the treatment period” value in [5] (0.313% in vehicle) and in assay [5] (0.625% in vehicle) were “declines in PASI scores” and “better declines in PASI scores”, respectively. In addition, in the assay with mice skin tissues (0.625%), the “Tensile strength (N)” value turned out to be 55.33 ± 1.7 N. The “Histopathological amelioration of IMQ-induced psoriasis (skin and ear)” value in assay [6] is recorded as “ameliorated more”.
On to `O=c1ccc2cc(O)c(O)cc2o1` [Compound 2, 6,7-dihydroxycoumarin, reference compound], for which, in [3] (2.5% in vehicle cream), the “% of Wound healing” value was found to be 90% and the “Wound healing observed animals in a group” value was found to be 4. In addition, in assay [4] (2.5% in vehicle cream), the “Wound healing observed animals in a group on day 10” value came out at 0 and the “% of Wound healing” value came to 0%. For the same molecule, the “Day of wound closure” value in assay [4] (Group 2, 2.5% in vehicle, topical) was not above 26 days. In addition, the “Serum levels of hepatic enzyme markers ALT and AST” value in assay [7] was “lower serum levels”.
Turning to `NC(=O)C1CCCc2c1[nH]c1ccc(Cl)cc21` (centres unmarked) [EX527, 6-chloro-2,3,4,9-tetrahydro-1H-carbazole-1-carboxamide, reference compound], the “Tensile strength (N)” value in the assay with mice skin tissues (0.025%) turned out to be 6.03 ± 2.51 N.

The record behind these values is patent US20220296618A1, “ANTI-INFLAMMATORY COMPOUNDS FOR USE IN THE TREATMENT OF DERMAL DISORDERS” (COUNCIL OF SCIENTIFIC & INDUSTRIAL RESEARCH, priority 2019, published 2022).
